Measured values as given in paper PMC8333425, “Discovery of a dual Ras and ARF6 inhibitor from a GPCR endocytosis screen” (Nature Communications, 2021).
Values joined by “and” are separate entries in the source; they are usually repeats but may differ in a detail not shown here. Identical values can stand only once. Numbered stars: 1 amine (or outer) side, 2 acyl side, 3 side chain; on linkers, the order of the positions; unused ones are H or OH. Bridge positions count the residues as written; N and C are the ends. Square brackets hold non-standard residues; d marks the D form. Peptide text beside a SMILES is read from it. * marks the point of attachment. Leu(3R-OH,Nα-propionyl) = CCC(=O)N[C@H](C(=O)*)[C@H](O)C(C)C; X1 = CC(C)[C@@H](O[*:3])[C@H](N[*:1])C(=O)[*:2]; NMeT = CN[C@H](C(=O)O)[C@@H](C)O; dPhLac = O=C(O)[C@H](O)Cc1ccccc1; NMeA = CN[C@@H](C)C(=O)O; NMeDha = C=C(NC)C(=O)O

Assays:
PI3K/Akt = PI3K/Akt BRET sensor (Akt (PH)-RlucII / rGFP-CAAX), EGFR-mediated; format: cell-based, human
Description: (§1) HEK293SL cells were seeded at a density of 7.5 × 10^5 cells per 100-mm dish and 24 h later, transiently transfected as such. For receptor internalization experiments, cells were transfected with 0.12 μg AT1R-RlucII, B2R-RlucII, or β2AR-RlucII and 0.48 μg of either rGFP-CAAX (to assess removal from the PM) or rGFP-FYVE (to assess accumulation in the endosomes). For β-arrestin recruitment assays, cells were transfected with 0.48 μg of receptor-YFP along with 0.12 μg of β-arrestin-RlucII. For β-arrestin/AP-2 binding experiments, cells were transfected with 1 μg Flag-AT1R, 1 μg β2-Adaptin-YFP, and 0.12 μg β-arrestin2-RlucII. For G protein activation, cells were transfected with 3 μg of sp-Flag-AT1R along with either 4.5 μg of the Gαq-polycistronic BRET sensor or 0.24 μg of the Gαi3-RlucII and 0.6 μg of GFP10-Gγ2 and Gβ1 sensors or 0.12 μg PKN-RBD-RlucII and 0.48 μg of rGFP-CAAX. For PKC activation, cells were transfected with 3 μg of sp-Flag-AT1R and 0.18 μg of the PKC sensor. For GTPase activation experiments, cells were transfected with 1 μg Flag-AT1R, 0.48 μg of rGFP-CAAX, and either 0.12 μg of GGA3-PBD-RlucII, PAK-CRIB-RlucII or Raf-RBD-RlucII. For biosensor validation experiments, cells were additionally transfected with 500 ng Flag-K-Ras-WT, Flag-K-Ras-G12V, Flag-K-Ras-SOS-CAAX, HA-ARF6-WT, HA-ARF6-T27N, Myc-Rac1-WT, Myc-Rac1-Q61L or Myc-Rac1-T17N. For PI3K/Akt activation experiments, cells were transfected with 0.48 μg of rGFP-CAAX and 0.12 μg of Akt (PH)-RlucII. After 18 h of transfection, the media was replaced and cells were divided for subsequent experiments. Cells were detached and seeded onto poly-L-ornithine-coated 96-well flat white bottom plates (BrandTech Scientific) at a density of 2.5 × 10^4 cells per well in media. The next day, cells were washed once with Tyrode’s buffer (140 mM NaCl, 2.7 mM KCl, 1 mM CaCl2, 12 mM NaHCO3, 5.6 mM D-glucose, 0.5 mM MgCl2, 0.37 mM NaH2PO4, 25 mM HEPES, pH 7.4) and left in Tyrode’s buffer. For kinetics of β-arrestin recruitment or β-arrestin binding to receptor and AP-2 experiments, cells were serum starved for 30 min, pretreated with 21 (50 µM) or Barbadin (100 µM) for 30 min, stimulated with 100 nM AngII or 1 µM BK and BRET signals were monitored at indicated times using a Victor X Light plate reader (PerkinElmer). Coelenterazine H (final concentration of 5 µM) was added 3–5 min prior to BRET measurements. Filter set was 460/80 nm and 535/30 nm for detecting the RlucII Renilla luciferase (donor) and YFP (acceptor) light emissions, respectively. The BRET ratio was determined by calculating the ratio of the light emitted by YFP over the light emitted by the RlucII. For G protein activation, cells were serum starved, pretreated with compounds for 30 min, stimulated with 100 nM AngII for 2 min (Gαq, Gαi3, and Rho sensors) or 5 min (PKC sensor). For the kinetics of GTPase and PI3K/Akt activation, cells were serum starved, pretreated with 21 (50 µM) or Wortmannin (200 nM) for 30 min, stimulated with ligand (100 nM AngII or 100 ng/ml EGF) and BRET signals were monitored at indicated times. For concentration-response curves, cells were serum-starved, pretreated with various concentrations of compounds for 30 min and stimulated with ligand (100 nM AngII, 1 µM BK, 10 µM Isoproterenol (Iso) or 100 ng/ml EGF) in Tyrode’s buffer for 30 min for receptor internalization, 10 min for ARF6, 2 min for Rac and Rho activation and 5 min for Ras activation and PI3K/Akt activation. BRET signals were monitored using a Synergy2 (BioTek) microplate reader and coelenterazine 400a (final concentrations of 5 µM) added 3–5 min prior to BRET measurements. Filter set was 410/80 nm and 515/30 nm for detecting the RlucII Renilla luciferase (donor) and rGFP/GFP10 (acceptor) light emissions, respectively. The BRET ratio was determined by calculating the ratio of the light emitted by rGFP/GFP10 over the light emitted by the RlucII.

[1] = tested on: ERK1/2 activation by AT1R; test: Western blot of AT1R-mediated ERK1/2 phosphorylation; format: cell-based, human; conditions: 50 μM
Description: (§2) HEK293SL cells (10^5 cells per well) were seeded in a poly-L-lysine-coated six-well plate and transiently transfected with 3 μg Flag-AT1R, HA-B2R or HA-β2AR and/or 500 ng Flag-MEK1-WT, Flag-MEK1-DD, Flag-BRAF-WT, Flag-BRAF-V600E, Flag-K-Ras-WT, Flag-K-Ras-G12V, HA-ARF6-WT, or HA-ARF6-T27N. Gαq/11 KO and βarr1/2 KO cells were seeded onto 100 mm dishes at a density of 10^6 cells per dish. Next day, cells were transfected with 3 μg AT1R alone or along with 500 ng of β-arrestin2 using PEI. After 18 h of transfection, cells were detached and re-seeded onto poly-L-lysine coated 12-well plates (~1.5–2 × 10^5cells/well) for subsequent experiments. Forty-eight hours post transfection, in a 37 °C water bath, cells were serum-starved for 30 min, pretreated with DMSO (0.1%) or compound 21/Rasarfin (50 µM or at indicated concentrations) for 30 min, then stimulated or not with the indicated ligand [AngII (1 µM), BK (1 µM), Iso (10 µM) or EGF (100 ng/ml)] at indicated times. Cells were put on ice, washed with PBS and solubilized in 2x laemmli buffer (250 mM Tris–HCl pH 6.8, 2% SDS (w/v), 10% glycerol (v/v), 0.01% bromophenol blue (w/v) and 5% β-mercaptoethanol (v/v)) by heating at 65 °C for 15 min. Lysates were resolved on 10 or 14% SDS-PAGE, transferred to nitrocellulose membranes and immunoblotted for p-ERK1/2, ERK1/2, p-Akt, Akt, HA, Myc, β-actin or FLAG. ImageLab 5.2 software was used to quantify the digital blots as fold of the phosphorylated protein over total protein, which were then normalized as indicated in the figure legends. Uncropped immunoblots are provided in the Source Data file.

Gαq = target: T1, Gαq (Homo sapiens, UniProt P50148); test: Gαq BRET sensor, AT1R-mediated; format: cell-based
T1 construct: expressed in transfected cells; host or cells: HEK293SL
T1 sequence (P50148 whole entry): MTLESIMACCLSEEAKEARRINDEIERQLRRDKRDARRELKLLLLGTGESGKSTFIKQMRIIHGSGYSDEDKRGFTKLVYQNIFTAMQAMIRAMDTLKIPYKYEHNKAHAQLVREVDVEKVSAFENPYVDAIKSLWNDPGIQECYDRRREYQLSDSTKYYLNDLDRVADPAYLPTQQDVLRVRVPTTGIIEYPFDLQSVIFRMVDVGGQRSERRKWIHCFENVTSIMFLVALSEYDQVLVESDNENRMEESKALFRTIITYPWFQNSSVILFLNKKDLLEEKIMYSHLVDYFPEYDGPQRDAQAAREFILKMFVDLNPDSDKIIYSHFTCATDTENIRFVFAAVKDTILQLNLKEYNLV
T1 sequence (P62873 whole entry partner): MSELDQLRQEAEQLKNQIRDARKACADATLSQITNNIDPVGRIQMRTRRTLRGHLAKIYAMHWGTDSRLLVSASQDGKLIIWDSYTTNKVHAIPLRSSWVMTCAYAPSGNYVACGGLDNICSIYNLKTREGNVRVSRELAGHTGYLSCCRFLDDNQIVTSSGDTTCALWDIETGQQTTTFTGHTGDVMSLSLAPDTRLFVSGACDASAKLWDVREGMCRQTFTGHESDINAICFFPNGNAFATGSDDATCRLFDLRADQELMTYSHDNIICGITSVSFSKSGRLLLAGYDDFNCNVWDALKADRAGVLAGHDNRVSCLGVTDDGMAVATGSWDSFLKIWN
T1 sequence (P63211 2-71 partner limits assumed): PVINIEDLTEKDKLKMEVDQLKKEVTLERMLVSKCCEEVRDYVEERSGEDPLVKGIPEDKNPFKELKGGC
Description: as §1, with “The next day, cells were washed once with Tyrode’s buffer (140 mM NaCl, 2.7 mM KCl, 1 mM CaCl2, 12 mM NaHCO3, 5.6 mM D-glucose, 0.5 mM MgCl2, 0.37 mM NaH2PO4, 25 mM HEPES, pH 7.4) and left in Tyrode’s buffer.” left out, “Coelenterazine H (final concentration of 5 µM) was added 3–5 min prior to BRET measurements. Filter set was 460/80 nm and 535/30 nm for detecting the RlucII Renilla luciferase (donor) and YFP (acceptor) light emissions, respectively.” left out, “For G protein activation, cells were serum starved, pretreated with compounds for 30 min, stimulated with 100 nM AngII for 2 min (Gαq, Gαi3, and Rho sensors) or 5 min (PKC sensor).” left out, “For concentration-response curves, cells were serum-starved, pretreated with various concentrations of compounds for 30 min and stimulated with ligand (100 nM AngII, 1 µM BK, 10 µM Isoproterenol (Iso) or 100 ng/ml EGF) in Tyrode’s buffer for 30 min for receptor internalization, 10 min for ARF6, 2 min for Rac and Rho activation and 5 min for Ras activation and PI3K/Akt activation.” left out, “Filter set was 410/80 nm and 515/30 nm for detecting the RlucII Renilla luciferase (donor) and rGFP/GFP10 (acceptor) light emissions, respectively.” left out

MDA-MB-231 cells = test: Cell viability assay (MTT), MDA-MB-231; format: cell-based, human; conditions: for cell viability (MTT signal): S_Fig12f
Description: (§3) MDA-MB-231 breast cancer cells and A549 lung carcinomas (1500 cells in 150 μl/well) were seeded overnight on a clear 96-well plate. Twenty-four hours later, the cells were treated with 0.1% DMSO, or different concentrations of Rasarfin (as indicated), or 10 µM of 21.4, 21.8 (MDA-MB-231 breast cancer cells) or Doxorubicin for the indicated times at 37 °C. At each time point, 10 μl of 5 mg/ml MTT was added to each well and the plates were incubated for an additional 4 h at 37 °C. The absorbance at 590 nm was measured by plate reader. Experiments were done in triplicate and repeated three times.

A549 cells = test: Cell viability assay (MTT), A549; format: cell-based, human; conditions: Doxorubicin
Description: as §3

MEK1 = test: Western blot of ERK1/2 phosphorylation induced by MEK1 (MEK1-WT / MEK1-DD); format: cell-based, human
Description: as §2

COC[C@H]1OC(=O)c2coc3c2[C@@]1(C)C1=C(C3=O)[C@@H]2CCC(=O)[C@@]2(C)C[C@H]1OC(C)=O [Wortmannin, reference compound]
EGF-promoted BRET (PI3K/Akt; Wortmannin-treated, Log [EGF] (ng/ml) -12): 0

CCC(=O)N1CCN(c2ccc(NC(=O)c3cc4ccccc4o3)cc2Cl)CC1 [Compound 21.2]
inhibition of AT1R-mediated ERK1/2 (MAPK) activation (Fig. 8b) [1]: lost their ability to inhibit MAPK

C=C1C(=O)N[C@@H](C)C(=O)N(C)[C@@H](C)C(=O)N[C@@H]([C@H](OC(=O)[C@@H](NC(=O)CC)[C@H](O)C(C)C)C(C)C)C(=O)N(C)[C@@H]([C@@H](C)OC)C(=O)O[C@H](C(C)C)[C@H](NC(C)=O)C(=O)O[C@H](Cc2ccccc2)C(=O)N1C [UBO-QIC, reference compound] (Ac-[X1][dPhLac][NMeDha]A[NMeA][X1](Leu(3R-OH,Nα-propionyl))[NMeT](Me); ester 1-C)
Gq BRET sensor signal (S_Fig.4b), single experiments (Gαq): 0.0505 and 0.06125 and 0.044

COc1cccc2c1C(=O)c1c(O)c3c(c(O)c1C2=O)C[C@@](O)(C(=O)CO)C[C@@H]3O[C@H]1C[C@H](N)[C@H](O)[C@H](C)O1 [Doxorubicin, reference compound]
MDA-MB-231 cell viability (MTT) (MDA-MB-231 cells; Doxorubicin 10 µM): potently killed cells
cell viability (MTT signal) (MDA-MB-231 cells; 24h): 0.213 and 0.2235 and 0.2068
cell viability (MTT signal) (MDA-MB-231 cells; 48h): 0.2026 and 0.1628 and 0.1313
cell viability (MTT signal) (MDA-MB-231 cells; 72h): 0.1199 and 0.1728 and 0.1331
cell viability (MTT signal) (A549 cells; 24h): 0.213 and 0.2235 and 0.2068
cell viability (MTT signal) (A549 cells; 48h): 0.2026 and 0.1628 and 0.1313
cell viability (MTT signal) (A549 cells; 72h): 0.1331 and 0.1199 and 0.1728

O=C(NOCC1CC1)c1ccc(F)c(F)c1Nc1ccc(I)cc1Cl [PD184352, reference compound]
Predicted (LS) mean diff. DMSO vs. compound (Bonferroni's multiple comparisons test) (MEK1; Flag-MEK1 DD): 3.803
ERK1/2 phosphorylation relative to mock (S_Fig.4c) (MEK1; Flag-MEK1 WT): 0.4899 and 0.8 and 0.4446
Predicted (LS) mean diff. DMSO vs. compound (Bonferroni's multiple comparisons test) (MEK1; Flag-MEK1 WT): 0.8426
ERK1/2 phosphorylation relative to mock (S_Fig.4c) (MEK1; mock): 1
Predicted (LS) mean diff. DMSO vs. compound (Bonferroni's multiple comparisons test) (MEK1; mock): 0

EGF
EGF-promoted BRET (PI3K/Akt; EGF 100 ng/ml, time 0 min): 0
EGF-promoted BRET (PI3K/Akt; EGF 100 ng/ml, time 1 min): 0.3827 and 0.39
EGF-promoted BRET (PI3K/Akt; EGF 100 ng/ml, time 2 min): 0.5443 and 0.5547
EGF-promoted BRET (PI3K/Akt; EGF 100 ng/ml, time 3 min): 0.521 and 0.605
EGF-promoted BRET (PI3K/Akt; EGF 100 ng/ml, time 4 min): 0.6008 and 0.512 and 0.5428
EGF-promoted BRET (PI3K/Akt; EGF 100 ng/ml, time 5 min): 0.5307 and 0.4867 and 0.5263
